Measured values from ChEMBL document CHEMBL1128393 (J Med Chem, 1995).

Experiments:
[1] = molecular target: T1, Cytochrome P450 17 (Steroid 17-alpha-hydroxylase/17,20 lyase) (Rattus norvegicus, UniProt P11715); assay: in vitro
T1 sequence (P11715 whole entry): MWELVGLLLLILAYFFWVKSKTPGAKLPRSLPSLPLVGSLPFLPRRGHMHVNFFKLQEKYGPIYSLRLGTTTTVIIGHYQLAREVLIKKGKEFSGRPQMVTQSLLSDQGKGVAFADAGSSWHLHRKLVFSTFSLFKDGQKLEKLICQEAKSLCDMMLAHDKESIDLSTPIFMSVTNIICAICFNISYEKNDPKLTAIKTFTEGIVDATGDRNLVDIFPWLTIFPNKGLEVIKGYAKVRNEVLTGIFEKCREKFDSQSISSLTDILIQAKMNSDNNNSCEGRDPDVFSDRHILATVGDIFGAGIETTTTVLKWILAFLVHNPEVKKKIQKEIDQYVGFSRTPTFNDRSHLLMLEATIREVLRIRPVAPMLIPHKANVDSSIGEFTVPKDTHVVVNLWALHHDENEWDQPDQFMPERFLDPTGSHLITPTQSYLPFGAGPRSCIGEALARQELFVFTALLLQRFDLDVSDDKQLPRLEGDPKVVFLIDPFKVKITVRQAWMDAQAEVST

[2] = molecular target: T2, Cytochrome P450 18 hydroxylase (Cytochrome P450 11B2, mitochondrial) (Homo sapiens, UniProt P19099); assay: in vitro; conditions: cattle
T2 sequence (P19099 whole entry): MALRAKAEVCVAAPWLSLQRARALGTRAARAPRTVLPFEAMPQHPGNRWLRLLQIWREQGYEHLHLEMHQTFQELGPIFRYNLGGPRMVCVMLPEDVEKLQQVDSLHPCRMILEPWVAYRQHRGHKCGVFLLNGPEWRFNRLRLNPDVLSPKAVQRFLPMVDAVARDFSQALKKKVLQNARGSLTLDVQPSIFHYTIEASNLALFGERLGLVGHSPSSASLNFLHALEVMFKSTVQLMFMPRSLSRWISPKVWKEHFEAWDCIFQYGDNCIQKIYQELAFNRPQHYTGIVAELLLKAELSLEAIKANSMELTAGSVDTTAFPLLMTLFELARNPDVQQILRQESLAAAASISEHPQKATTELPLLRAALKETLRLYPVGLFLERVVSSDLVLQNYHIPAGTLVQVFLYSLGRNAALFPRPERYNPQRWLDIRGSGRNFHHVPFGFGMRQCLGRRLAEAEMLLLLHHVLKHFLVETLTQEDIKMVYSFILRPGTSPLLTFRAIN

[3] = molecular target: T3, Cytochrome P450 11B2, mitochondrial (Rattus norvegicus, UniProt P30099)
T3 sequence (P30099 whole entry): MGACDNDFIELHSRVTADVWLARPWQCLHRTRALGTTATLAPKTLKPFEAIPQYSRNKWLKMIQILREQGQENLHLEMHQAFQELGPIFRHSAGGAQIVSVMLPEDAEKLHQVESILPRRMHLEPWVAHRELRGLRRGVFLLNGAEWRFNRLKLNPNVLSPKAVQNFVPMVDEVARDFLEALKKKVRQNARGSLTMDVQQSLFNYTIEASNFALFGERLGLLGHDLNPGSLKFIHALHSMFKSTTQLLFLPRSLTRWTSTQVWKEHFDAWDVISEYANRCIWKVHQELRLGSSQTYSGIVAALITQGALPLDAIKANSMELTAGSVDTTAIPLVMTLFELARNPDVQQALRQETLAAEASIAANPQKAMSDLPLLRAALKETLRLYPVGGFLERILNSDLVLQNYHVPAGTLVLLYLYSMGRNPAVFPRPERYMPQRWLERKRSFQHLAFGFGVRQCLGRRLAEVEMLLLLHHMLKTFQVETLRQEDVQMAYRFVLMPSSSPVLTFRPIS

Rattus norvegicus [4] = organism: Rattus norvegicus; type: functional
Aromatase [5] = molecular target: T4, Aromatase (Rattus norvegicus, UniProt P22443); conditions: in vivo, 30 mg/kg
T4 sequence (P22443 whole entry): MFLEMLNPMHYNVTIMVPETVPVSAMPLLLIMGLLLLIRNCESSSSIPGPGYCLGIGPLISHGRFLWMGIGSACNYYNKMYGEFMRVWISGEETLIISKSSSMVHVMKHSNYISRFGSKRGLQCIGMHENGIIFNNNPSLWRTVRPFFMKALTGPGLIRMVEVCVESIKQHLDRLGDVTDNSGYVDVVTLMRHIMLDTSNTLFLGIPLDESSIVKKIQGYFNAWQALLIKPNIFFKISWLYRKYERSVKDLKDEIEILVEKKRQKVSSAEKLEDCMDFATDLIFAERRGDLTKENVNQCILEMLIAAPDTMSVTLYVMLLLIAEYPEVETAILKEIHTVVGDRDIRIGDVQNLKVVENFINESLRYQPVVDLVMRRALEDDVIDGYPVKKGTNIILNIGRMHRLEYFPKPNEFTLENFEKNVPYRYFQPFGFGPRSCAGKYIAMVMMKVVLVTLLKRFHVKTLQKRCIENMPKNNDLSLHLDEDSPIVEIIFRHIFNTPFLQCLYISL

Rattus norvegicus [6] = organism: Rattus norvegicus; type: functional; remark: listed apart in the source
Rattus norvegicus [7] = organism: Rattus norvegicus; type: functional; remark: listed apart in the source
Rattus norvegicus [8] = organism: Rattus norvegicus; type: functional; remark: listed apart in the source
[9] = molecular target: T3, Cytochrome P450 11B2, mitochondrial; remark: listed apart in the source
Rattus norvegicus [10] = organism: Rattus norvegicus; type: functional; remark: listed apart in the source
Rattus norvegicus [11] = organism: Rattus norvegicus; type: functional; remark: listed apart in the source
Rattus norvegicus [12] = organism: Rattus norvegicus; type: functional; remark: listed apart in the source
Aromatase [13] = molecular target: T4, Aromatase; conditions: in vivo, 30 mg/kg; remark: listed apart in the source
[14] = molecular target: T5, Cytochrome P450 11B1, mitochondrial (Homo sapiens, UniProt P15538)
T5 sequence (P15538 whole entry): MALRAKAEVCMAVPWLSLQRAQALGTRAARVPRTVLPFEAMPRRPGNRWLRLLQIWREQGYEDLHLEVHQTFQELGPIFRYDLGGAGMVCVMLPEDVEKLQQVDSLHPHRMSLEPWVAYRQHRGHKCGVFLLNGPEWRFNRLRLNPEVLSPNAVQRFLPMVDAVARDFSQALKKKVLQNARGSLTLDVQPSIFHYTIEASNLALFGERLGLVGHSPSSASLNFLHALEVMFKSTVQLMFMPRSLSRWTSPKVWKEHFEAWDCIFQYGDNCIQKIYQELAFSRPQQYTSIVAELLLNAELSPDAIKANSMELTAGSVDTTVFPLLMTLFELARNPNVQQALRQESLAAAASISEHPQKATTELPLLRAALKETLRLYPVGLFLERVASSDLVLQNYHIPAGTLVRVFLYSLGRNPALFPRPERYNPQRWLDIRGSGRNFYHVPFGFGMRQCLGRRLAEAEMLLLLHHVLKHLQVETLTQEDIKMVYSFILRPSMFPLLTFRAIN

Rattus norvegicus [15] = organism: Rattus norvegicus; type: functional; remark: listed apart in the source
Rattus norvegicus [16] = organism: Rattus norvegicus; type: functional; remark: listed apart in the source
Rattus norvegicus [17] = organism: Rattus norvegicus; type: functional; remark: listed apart in the source
Aromatase [18] = molecular target: T4, Aromatase
Rattus norvegicus [19] = organism: Rattus norvegicus; type: functional; remark: listed apart in the source
Rattus norvegicus [20] = organism: Rattus norvegicus; type: functional; remark: listed apart in the source
Rattus norvegicus [21] = organism: Rattus norvegicus; type: functional; remark: listed apart in the source
Rattus norvegicus [22] = organism: Rattus norvegicus; type: functional; remark: listed apart in the source
Rattus norvegicus [23] = organism: Rattus norvegicus; type: functional; remark: listed apart in the source
Rattus norvegicus [24] = organism: Rattus norvegicus; type: functional; remark: listed apart in the source
[25] = molecular target: T6, Steroid 17-alpha-hydroxylase/17,20 lyase (Rattus norvegicus, UniProt P11715); conditions: 125 µM
T6 sequence (P11715 whole entry): T1 sequence (P11715 whole entry)

Rattus norvegicus [26] = organism: Rattus norvegicus; type: functional; remark: listed apart in the source
Rattus norvegicus [27] = organism: Rattus norvegicus; type: functional; remark: listed apart in the source
[28] = molecular target: T3, Cytochrome P450 11B2, mitochondrial; remark: listed apart in the source
Aromatase [29] = molecular target: T4, Aromatase; conditions: in vivo, 30 mg/kg; remark: listed apart in the source
Aromatase [30] = molecular target: T4, Aromatase; conditions: in vivo, 30 mg/kg; remark: listed apart in the source
Aromatase [31] = molecular target: T4, Aromatase; conditions: in vivo, 30 mg/kg; remark: listed apart in the source

Oc1ccc2c(c1)CCC1C(c3ccncc3)C21 (stereo not given)
inhibition at 125 µM [1]: 41%
inhibition at 1 µM [2]: 36%

Oc1ccc2c(c1)C1C(CC2)C1c1ccncc1 (stereo not given)
IC50 [3]: 7 µM

c1ccc2c(c1)CCC1C(c3ccncc3)C21 (stereo not given)
Tumors (Rattus norvegicus [4]): 9%
Mean (Aromatase [5]): 124
inhibition at 125 µM [1]: 36%
No. of tumors (Rattus norvegicus [6]): 1
Tumors (Rattus norvegicus [7]): 47%
inhibition at 1 µM [2]: 55%
Change of tumor area (Rattus norvegicus [8]): 36%
IC50 [9]: 3 µM
Tumors (Rattus norvegicus [10]): 28%
Tumors (Rattus norvegicus [11]): 16%
No. of tumors (Rattus norvegicus [12]): 32

COc1cccc2c1CCC1C(c3ccncc3)C21 (stereo not given)
inhibition at 125 µM [1]: 51%
inhibition at 1 µM [2]: 38%

COc1ccc2c(c1)C1C(CC2)C1(C)c1ccncc1 (stereo not given)
inhibition at 125 µM [1]: 68%
Effect (Aromatase [13]): 139

COc1ccc2c(c1)C1C(CC2)C1c1ccncc1 (single isomer, unassigned; (+))
inhibition at 125 µM [1]: 54%
IC50 [14]: 95 µM
IC50 [3]: 6 µM

COc1ccc2c(c1)C1C(CC2)C1c1ccncc1 (stereo in doubt; 4)
No. of tumors (Rattus norvegicus [15]): 10
Tumors (Rattus norvegicus [16]): 43%
Tumors (Rattus norvegicus [17]): 37%
IC50 (Aromatase [18]): 0.265 µM
No. of tumors (Rattus norvegicus [19]): 33
No. of tumors (Rattus norvegicus [20]): 25
Tumors (Rattus norvegicus [7]): 52%
inhibition at 1 µM [2]: 45%
IC50 [14]: 75 µM
Change of tumor area (Rattus norvegicus [8]): 29%
Tumors (Rattus norvegicus [21]): 18%
IC50 [3]: 15 µM
Change of tumor area (Rattus norvegicus [22]): 55%
Tumors (Rattus norvegicus [23]): 0%
No. of tumors (Rattus norvegicus [24]): 5
Effect (Aromatase [13]): 132
Inhibition [25]: 47%
Tumors (Rattus norvegicus [26]): 15%
Tumors (Rattus norvegicus [27]): 20%
Tumors (Rattus norvegicus [11]): 15%

COc1cc2c(cc1Br)CCC1C(c3ccncc3)C21 (stereo in doubt; 7)
Effect (Aromatase [13]): 176

COc1ccc2c(c1)C1C(CC2)C1c1ccncc1 (stereo in doubt; (-)-4)
IC50 [14]: 30 µM
IC50 [3]: 10 µM
Inhibition [25]: 45%

CCC1(c2ccc(N)cc2)CCC(=O)NC1=O (stereo not given) [AMINOGLUTETHIMIDE]
IC50 [28]: 50 µM
IC50 [9]: 80 µM

C[C@]12CCC(=O)C=C1CC[C@@H]1[C@@H]2CC[C@]2(C)C(=O)CC[C@@H]12 [ANDROSTENEDIONE]
Mean (Aromatase [29]): 138
Mean (Aromatase [30]): 187
Mean (Aromatase [31]): 202
